Source: patent publication US20190023738A1, “THERAPEUTIC COMPOSITIONS INCLUDING PHENAZINE-3-ONE AND PHENOTHIAZINE-3-ONE DERIVATIVES AND USES THEREOF” (Stealth BioTherapeutics Corp, priority 2015, published 2019)

Tests used:
[1] = tested on: neonatal cardiomyocytes; assay: Mitosox mitochondrial superoxide in Angiotensin II-stimulated neonatal cardiomyocytes (flow cytometry); format: cell-based, mouse; conditions: NAC 0.5 mM, Angiotensin II 1 μM for 3 hours, Mitosox fluorescence
Description: Ventricles from mouse neonates younger than 72 hours will be dissected, minced, and enzymatically digested with Blendzyme 4 (45 mg/mL, Roche). After enzymatic digestion, cardiomyocytes will be enriched using differential pre-plating for 2 hours, and seeded on fibronectin-coated culture dishes for 24 hours in DMEM (Gibco) with 20% Fetal Bovine Serum (Sigma) and 25 μM Arabinosylcytosine (Sigma). Cardiomyocytes will be stimulated with Angiotensin II (1 μM) for 3 hours in serum-free DMEM containing 0.5% insulin transferrin-selenium (Sigma), 2 mM glutamine, and 1 mg/mL BSA. […] Samples will be analyzed using excitation/emission of 488/625 nm by flow cytometry. Flow data will be analyzed using FCS Express (De Novo Software, Los Angeles, Calif., U.S.A.), and presented as histogram distributions of Mitosox fluorescence intensity.

[2] = tested on: several mammalian cell types; conditions: cited from earlier work

Compound: CC(=O)N[C@@H](CS)C(=O)O [N-acetyl cysteine]
- effect on the level of mitochondrial ROS after Ang II [1]: not show any effect

Compound: 2′,6′-Dmt-D-Arg-Phe-Lys-NH2
- penetration of the plasma membrane [2]: readily penetrates the plasma membrane of several mammalian cell types in an energy-independent manner
